Source: patent publication US20230072860A1, “ISOXAZOLINE OXIME FORMATE COMPOUND, PREPARATION METHOD THEREFOR, HERBICIDAL COMPOSITION AND USE THEREOF” (QINGDAO KINGAGROOT CHEMICAL COMPOUND CO., LTD., priority 2020, published 2023)

Experiments:
Assay in all cases: Experiment on weeding effect in post-emergence stage
Assay type in all cases: in vivo
Conditions in all cases: dose 15 g a.i./ha, fresh weight control rate level
Abutilon theophrasti = tested on: Abutilon theophrasti
From the text: (§1) Experiment on weeding effect in post-emergence stage:
(§2) Monocotyledonous and dicotyledonous weed seeds (Descurainia sophia, Capsella bursa-pastoris, Abutilon theophrasti, Galium aparine, Stellaria media, Lithospermum arvense, Rorippa indica, Alopecurus aequalis, Alopecurus japonicus, Beckmannia syzigachne, Sclerochloa dura, Conyza Canadensis, Phleum paniculatum, Veronica didyma Tenore, Eleusine indica, Bromus japonicus, Aegilops tauschii, Phalaris arundinacea, Amaranthus retroflexus, Chenopodium album, Commelina communis, Sonchus arvensis, Convolvulus arvensis, Cirsium setosum, Solanum nigrum, Acalypha australis, Digitaria sanguinalis, Echinochloa crusgalli, Setaria viridis, Setaria glauca, Leptochloa chinensis, Monochoria vaginalis, Sagittaria trolia, Scirpus juncoides, Cyperus rotundus, Cyperus iria, Cyperus difformis, Elmbristylis, Portulaca oleracea, Xanthium sibiricum, Pharbitis nil) and major crop seeds (wheat, corn, rice, soybean, cotton, oilseed rape, millet, sorghum, potato, sesame, ricinus) were placed in plastic pots filled with soil, then covered with 0.5-2 cm of soil, allowed to grow in a good greenhouse environment. After 2 weeks of sowing, the test plants were treated in the 2-3 leaf stage. The tested compounds of the present invention were respectively dissolved in acetone, then added with Tween 80 and 1.5 liter/ha of emulsifiable concentrate of methyl oleate as synergist, diluted with a certain amount of water to obtain a solution with a certain concentration, and sprayed with a spray tower onto the plants. After the application, the plants were cultured for 3 weeks in the greenhouse, and then the experimental results of the weeding were counted. The doses of the used compounds were 500, 250, 125, 60, 15 g a.i./ha, and the averages were obtained by repeating for three times.

Amaranthus retroflexus = tested on: Amaranthus retroflexus
From the text: as §1, §2

Digitaria sanguinalis = tested on: Digitaria sanguinalis
From the text: as §1, §2

Echinochloa crusgalli = tested on: Echinochloa crusgalli
From the text: as §1, §2

Eleusine indica = tested on: Eleusine indica
From the text: as §1, §2

Galium aparine = tested on: Galium aparine
From the text: as §1, §2

Leptochloa chinensis = tested on: Leptochloa chinensis
From the text: as §1, §2

Setaria viridis = tested on: Setaria viridis
From the text: as §1, §2

Veronica didyma Tenore = tested on: Veronica didyma Tenore
From the text: as §1, §2

Structure (SMILES): CCOC(C)=NOC(=O)C1(C)CC(c2cc(-n3c(=O)n(C)c(=S)n(C)c3=O)c(F)cc2Cl)=NO1 (mixture of isomers) [Compound 120]
- weeding effect in post-emergence stage, Abutilon theophrasti (level) (Abutilon theophrasti): 5 (Level 5: growth control rate is above 85%)
- weeding effect in post-emergence stage, Amaranthus retroflexus (level) (Amaranthus retroflexus): 5 (Level 5: growth control rate is above 85%)
- weeding effect in post-emergence stage, Digitaria sanguinalis (level) (Digitaria sanguinalis): 5 (Level 5: growth control rate is above 85%)
- weeding effect in post-emergence stage, Echinochloa crusgalli (level) (Echinochloa crusgalli): 5 (Level 5: growth control rate is above 85%)
- weeding effect in post-emergence stage, Eleusine indica (level) (Eleusine indica): 5 (Level 5: growth control rate is above 85%)
- weeding effect in post-emergence stage, Galium aparine (level) (Galium aparine): 5 (Level 5: growth control rate is above 85%)
- weeding effect in post-emergence stage, Leptochloa chinensis (level) (Leptochloa chinensis): 5 (Level 5: growth control rate is above 85%)
- weeding effect in post-emergence stage, Setaria viridis (level) (Setaria viridis): 5 (Level 5: growth control rate is above 85%)
- weeding effect in post-emergence stage, Veronica didyma Tenore (level) (Veronica didyma Tenore): 5 (Level 5: growth control rate is above 85%)

Structure (SMILES): CC(=NOC(=O)C1(C)CC(c2cc(-n3c(=O)n(C)c(=S)n(C)c3=O)c(F)cc2Cl)=NO1)C1CC1 (mixture of isomers) [Compound 84]
- weeding effect in post-emergence stage, Abutilon theophrasti (level) (Abutilon theophrasti): 5 (Level 5: growth control rate is above 85%)
- weeding effect in post-emergence stage, Amaranthus retroflexus (level) (Amaranthus retroflexus): 5 (Level 5: growth control rate is above 85%)
- weeding effect in post-emergence stage, Digitaria sanguinalis (level) (Digitaria sanguinalis): 5 (Level 5: growth control rate is above 85%)
- weeding effect in post-emergence stage, Echinochloa crusgalli (level) (Echinochloa crusgalli): 5 (Level 5: growth control rate is above 85%)
- weeding effect in post-emergence stage, Eleusine indica (level) (Eleusine indica): 5 (Level 5: growth control rate is above 85%)
- weeding effect in post-emergence stage, Galium aparine (level) (Galium aparine): 5 (Level 5: growth control rate is above 85%)
- weeding effect in post-emergence stage, Leptochloa chinensis (level) (Leptochloa chinensis): 5 (Level 5: growth control rate is above 85%)
- weeding effect in post-emergence stage, Setaria viridis (level) (Setaria viridis): 5 (Level 5: growth control rate is above 85%)
- weeding effect in post-emergence stage, Veronica didyma Tenore (level) (Veronica didyma Tenore): 5 (Level 5: growth control rate is above 85%)

Structure (SMILES): C/C(=N\OC(=O)C1(C)CC(c2cc(-n3c(=O)n(C)c(=S)n(C)c3=S)c(F)cc2Cl)=NO1)C(C)(C)C (stereo not drawn) [Compound 59]
- weeding effect in post-emergence stage, Abutilon theophrasti (level) (Abutilon theophrasti): 5 (Level 5: growth control rate is above 85%)
- weeding effect in post-emergence stage, Amaranthus retroflexus (level) (Amaranthus retroflexus): 5 (Level 5: growth control rate is above 85%)
- weeding effect in post-emergence stage, Digitaria sanguinalis (level) (Digitaria sanguinalis): 5 (Level 5: growth control rate is above 85%)
- weeding effect in post-emergence stage, Echinochloa crusgalli (level) (Echinochloa crusgalli): 5 (Level 5: growth control rate is above 85%)
- weeding effect in post-emergence stage, Eleusine indica (level) (Eleusine indica): 5 (Level 5: growth control rate is above 85%)
- weeding effect in post-emergence stage, Galium aparine (level) (Galium aparine): 5 (Level 5: growth control rate is above 85%)
- weeding effect in post-emergence stage, Leptochloa chinensis (level) (Leptochloa chinensis): 5 (Level 5: growth control rate is above 85%)
- weeding effect in post-emergence stage, Setaria viridis (level) (Setaria viridis): 5 (Level 5: growth control rate is above 85%)
- weeding effect in post-emergence stage, Veronica didyma Tenore (level) (Veronica didyma Tenore): 5 (Level 5: growth control rate is above 85%)

Structure (SMILES): CC(=NOC(=O)C1(C)CC(c2cc(-n3c(=O)n(C)c(=S)n(C)c3=O)c(F)cc2Cl)=NO1)C(C)C (mixture of isomers) [Compound 80]
- weeding effect in post-emergence stage, Abutilon theophrasti (level) (Abutilon theophrasti): 5 (Level 5: growth control rate is above 85%)
- weeding effect in post-emergence stage, Amaranthus retroflexus (level) (Amaranthus retroflexus): 5 (Level 5: growth control rate is above 85%)
- weeding effect in post-emergence stage, Digitaria sanguinalis (level) (Digitaria sanguinalis): 5 (Level 5: growth control rate is above 85%)
- weeding effect in post-emergence stage, Echinochloa crusgalli (level) (Echinochloa crusgalli): 5 (Level 5: growth control rate is above 85%)
- weeding effect in post-emergence stage, Eleusine indica (level) (Eleusine indica): 5 (Level 5: growth control rate is above 85%)
- weeding effect in post-emergence stage, Galium aparine (level) (Galium aparine): 5 (Level 5: growth control rate is above 85%)
- weeding effect in post-emergence stage, Leptochloa chinensis (level) (Leptochloa chinensis): 5 (Level 5: growth control rate is above 85%)
- weeding effect in post-emergence stage, Setaria viridis (level) (Setaria viridis): 5 (Level 5: growth control rate is above 85%)
- weeding effect in post-emergence stage, Veronica didyma Tenore (level) (Veronica didyma Tenore): 5 (Level 5: growth control rate is above 85%)

Structure (SMILES): CC(C)=NOC(=O)C1(C)CC(c2nc(-n3c(=O)n(C)c(=S)n(C)c3=O)c(F)cc2Cl)=NO1 (racemic) [Compound 16]
- weeding effect in post-emergence stage, Abutilon theophrasti (level) (Abutilon theophrasti): 5 (Level 5: growth control rate is above 85%)
- weeding effect in post-emergence stage, Amaranthus retroflexus (level) (Amaranthus retroflexus): 5 (Level 5: growth control rate is above 85%)
- weeding effect in post-emergence stage, Digitaria sanguinalis (level) (Digitaria sanguinalis): 5 (Level 5: growth control rate is above 85%)
- weeding effect in post-emergence stage, Echinochloa crusgalli (level) (Echinochloa crusgalli): 5 (Level 5: growth control rate is above 85%)
- weeding effect in post-emergence stage, Eleusine indica (level) (Eleusine indica): 5 (Level 5: growth control rate is above 85%)
- weeding effect in post-emergence stage, Galium aparine (level) (Galium aparine): 5 (Level 5: growth control rate is above 85%)
- weeding effect in post-emergence stage, Leptochloa chinensis (level) (Leptochloa chinensis): 5 (Level 5: growth control rate is above 85%)
- weeding effect in post-emergence stage, Setaria viridis (level) (Setaria viridis): 5 (Level 5: growth control rate is above 85%)
- weeding effect in post-emergence stage, Veronica didyma Tenore (level) (Veronica didyma Tenore): 5 (Level 5: growth control rate is above 85%)

Structure (SMILES): CC(C)=NOC(=O)C1(C)CC(c2cc(-n3c(=O)cc(C(F)(F)F)n(C)c3=S)c(F)cc2Cl)=NO1 (stereo not drawn) [Compound 218]
- weeding effect in post-emergence stage, Abutilon theophrasti (level) (Abutilon theophrasti): 5 (Level 5: growth control rate is above 85%)
- weeding effect in post-emergence stage, Amaranthus retroflexus (level) (Amaranthus retroflexus): 5 (Level 5: growth control rate is above 85%)
- weeding effect in post-emergence stage, Digitaria sanguinalis (level) (Digitaria sanguinalis): 5 (Level 5: growth control rate is above 85%)
- weeding effect in post-emergence stage, Echinochloa crusgalli (level) (Echinochloa crusgalli): 5 (Level 5: growth control rate is above 85%)
- weeding effect in post-emergence stage, Eleusine indica (level) (Eleusine indica): 5 (Level 5: growth control rate is above 85%)
- weeding effect in post-emergence stage, Galium aparine (level) (Galium aparine): 5 (Level 5: growth control rate is above 85%)
- weeding effect in post-emergence stage, Leptochloa chinensis (level) (Leptochloa chinensis): 5 (Level 5: growth control rate is above 85%)
- weeding effect in post-emergence stage, Setaria viridis (level) (Setaria viridis): 5 (Level 5: growth control rate is above 85%)
- weeding effect in post-emergence stage, Veronica didyma Tenore (level) (Veronica didyma Tenore): 5 (Level 5: growth control rate is above 85%)

Structure (SMILES): Cn1c(=S)n(C)c(=O)n(-c2cc(C3=NOC(C)(C(=O)ON=C(c4ccccc4)c4ccccc4)C3)c(Cl)cc2F)c1=O (stereo not drawn) [Compound 140]
- weeding effect in post-emergence stage, Abutilon theophrasti (level) (Abutilon theophrasti): 5 (Level 5: growth control rate is above 85%)
- weeding effect in post-emergence stage, Amaranthus retroflexus (level) (Amaranthus retroflexus): 5 (Level 5: growth control rate is above 85%)
- weeding effect in post-emergence stage, Digitaria sanguinalis (level) (Digitaria sanguinalis): 5 (Level 5: growth control rate is above 85%)
- weeding effect in post-emergence stage, Echinochloa crusgalli (level) (Echinochloa crusgalli): 5 (Level 5: growth control rate is above 85%)
- weeding effect in post-emergence stage, Eleusine indica (level) (Eleusine indica): 5 (Level 5: growth control rate is above 85%)
- weeding effect in post-emergence stage, Galium aparine (level) (Galium aparine): 5 (Level 5: growth control rate is above 85%)
- weeding effect in post-emergence stage, Leptochloa chinensis (level) (Leptochloa chinensis): 5 (Level 5: growth control rate is above 85%)
- weeding effect in post-emergence stage, Setaria viridis (level) (Setaria viridis): 5 (Level 5: growth control rate is above 85%)
- weeding effect in post-emergence stage, Veronica didyma Tenore (level) (Veronica didyma Tenore): 5 (Level 5: growth control rate is above 85%)

Structure (SMILES): CCC(CC)=NOC(=O)C1(C)CC(c2cc(-n3c(=O)n(C)c(=S)n(C)c3=O)c(F)cc2Cl)=NO1 (racemic) [Compound 83]
- weeding effect in post-emergence stage, Abutilon theophrasti (level) (Abutilon theophrasti): 5 (Level 5: growth control rate is above 85%)
- weeding effect in post-emergence stage, Amaranthus retroflexus (level) (Amaranthus retroflexus): 5 (Level 5: growth control rate is above 85%)
- weeding effect in post-emergence stage, Digitaria sanguinalis (level) (Digitaria sanguinalis): 5 (Level 5: growth control rate is above 85%)
- weeding effect in post-emergence stage, Echinochloa crusgalli (level) (Echinochloa crusgalli): 5 (Level 5: growth control rate is above 85%)
- weeding effect in post-emergence stage, Eleusine indica (level) (Eleusine indica): 5 (Level 5: growth control rate is above 85%)
- weeding effect in post-emergence stage, Galium aparine (level) (Galium aparine): 5 (Level 5: growth control rate is above 85%)
- weeding effect in post-emergence stage, Leptochloa chinensis (level) (Leptochloa chinensis): 5 (Level 5: growth control rate is above 85%)
- weeding effect in post-emergence stage, Setaria viridis (level) (Setaria viridis): 5 (Level 5: growth control rate is above 85%)
- weeding effect in post-emergence stage, Veronica didyma Tenore (level) (Veronica didyma Tenore): 5 (Level 5: growth control rate is above 85%)

Structure (SMILES): Cn1c(=S)n(C)c(=S)n(-c2cc(C3=NOC(C)(C(=O)ON=C4CCCC4)C3)c(Cl)cc2F)c1=O (stereo not drawn) [Compound 74]
- weeding effect in post-emergence stage, Abutilon theophrasti (level) (Abutilon theophrasti): 5 (Level 5: growth control rate is above 85%)
- weeding effect in post-emergence stage, Amaranthus retroflexus (level) (Amaranthus retroflexus): 5 (Level 5: growth control rate is above 85%)
- weeding effect in post-emergence stage, Digitaria sanguinalis (level) (Digitaria sanguinalis): 5 (Level 5: growth control rate is above 85%)
- weeding effect in post-emergence stage, Echinochloa crusgalli (level) (Echinochloa crusgalli): 5 (Level 5: growth control rate is above 85%)
- weeding effect in post-emergence stage, Eleusine indica (level) (Eleusine indica): 5 (Level 5: growth control rate is above 85%)
- weeding effect in post-emergence stage, Galium aparine (level) (Galium aparine): 5 (Level 5: growth control rate is above 85%)
- weeding effect in post-emergence stage, Leptochloa chinensis (level) (Leptochloa chinensis): 5 (Level 5: growth control rate is above 85%)
- weeding effect in post-emergence stage, Setaria viridis (level) (Setaria viridis): 5 (Level 5: growth control rate is above 85%)
- weeding effect in post-emergence stage, Veronica didyma Tenore (level) (Veronica didyma Tenore): 5 (Level 5: growth control rate is above 85%)
